Experimental data taken from ChEMBL document CHEMBL5543153, “Discovery of a Potent Dual Son of Sevenless 1 (SOS1) and Epidermal Growth Factor Receptor (EGFR) Inhibitor for the Treatment of Prostate Cancer” (J Med Chem, 2024).
pIC50: −log10 of the molar value. Calls of active or inactive are those of the source. The rule behind the calls is not given here.

Columns and labels:
PC-3 [1] = test: Antiproliferative activity against human PC-3 cells transfected with SOS1 and EGFR shRNA assessed as inhibition of cell growth incubated for 72 hrs by MTT assay; type: functional, cell-based; details: PC-3, 72 h
HUVEC [2] = test: Antiangiogenic activity in HUVEC cells assessed as reduction of node at 0.5 to 12.5 uM incubated for 8 hrs by matrigel based microscopic analysis; type: functional, cell-based; details: Homo sapiens, dose 0.5-12.5 µM
PC-3 [3] = test: cells; type: functional, cell-based; details: Homo sapiens, PC-3, 72 h
Description: Antiproliferative activity against human PC-3 cells assessed as inhibition of cell growth incubated for 72 hrs by MTT assay

PC-3 [4] = test: Induction of cell cycle arrest in human PC-3 cells assessed as accumulation of cells at G2 phase at 12.5 uM by PI staining based flow cytometry (reference value: 7.75%); type: functional
PC-3 [5] = test: Antiproliferative activity against human PC-3 cells transfected with EGFR shRNA assessed as inhibition of cell growth incubated for 72 hrs by MTT assay; type: functional, cell-based; details: PC-3, 72 h
A549 = test: Antiproliferative activity against human A549 cells assessed as inhibition of cell growth incubated for 72 hrs by MTT assay; type: functional, cell-based
A-427 = test: Antiproliferative activity against human A-427 cells harboring KRAS G12D mutant assessed as inhibition of cell growth incubated for 72 hrs by MTT assay; type: functional, cell-based; details: A-427, 72 h
[6] = molecular target: T1, Son of sevenless homolog 1 (Homo sapiens) (UniProt Q07889); test: Inhibition of SOS1 in human PC-3 cells assessed as downregulation of ERK phosphorylation at 0.5 uM incubated for 15 mins by Western blotting analysis; type: cell-based
T1 sequence (whole entry): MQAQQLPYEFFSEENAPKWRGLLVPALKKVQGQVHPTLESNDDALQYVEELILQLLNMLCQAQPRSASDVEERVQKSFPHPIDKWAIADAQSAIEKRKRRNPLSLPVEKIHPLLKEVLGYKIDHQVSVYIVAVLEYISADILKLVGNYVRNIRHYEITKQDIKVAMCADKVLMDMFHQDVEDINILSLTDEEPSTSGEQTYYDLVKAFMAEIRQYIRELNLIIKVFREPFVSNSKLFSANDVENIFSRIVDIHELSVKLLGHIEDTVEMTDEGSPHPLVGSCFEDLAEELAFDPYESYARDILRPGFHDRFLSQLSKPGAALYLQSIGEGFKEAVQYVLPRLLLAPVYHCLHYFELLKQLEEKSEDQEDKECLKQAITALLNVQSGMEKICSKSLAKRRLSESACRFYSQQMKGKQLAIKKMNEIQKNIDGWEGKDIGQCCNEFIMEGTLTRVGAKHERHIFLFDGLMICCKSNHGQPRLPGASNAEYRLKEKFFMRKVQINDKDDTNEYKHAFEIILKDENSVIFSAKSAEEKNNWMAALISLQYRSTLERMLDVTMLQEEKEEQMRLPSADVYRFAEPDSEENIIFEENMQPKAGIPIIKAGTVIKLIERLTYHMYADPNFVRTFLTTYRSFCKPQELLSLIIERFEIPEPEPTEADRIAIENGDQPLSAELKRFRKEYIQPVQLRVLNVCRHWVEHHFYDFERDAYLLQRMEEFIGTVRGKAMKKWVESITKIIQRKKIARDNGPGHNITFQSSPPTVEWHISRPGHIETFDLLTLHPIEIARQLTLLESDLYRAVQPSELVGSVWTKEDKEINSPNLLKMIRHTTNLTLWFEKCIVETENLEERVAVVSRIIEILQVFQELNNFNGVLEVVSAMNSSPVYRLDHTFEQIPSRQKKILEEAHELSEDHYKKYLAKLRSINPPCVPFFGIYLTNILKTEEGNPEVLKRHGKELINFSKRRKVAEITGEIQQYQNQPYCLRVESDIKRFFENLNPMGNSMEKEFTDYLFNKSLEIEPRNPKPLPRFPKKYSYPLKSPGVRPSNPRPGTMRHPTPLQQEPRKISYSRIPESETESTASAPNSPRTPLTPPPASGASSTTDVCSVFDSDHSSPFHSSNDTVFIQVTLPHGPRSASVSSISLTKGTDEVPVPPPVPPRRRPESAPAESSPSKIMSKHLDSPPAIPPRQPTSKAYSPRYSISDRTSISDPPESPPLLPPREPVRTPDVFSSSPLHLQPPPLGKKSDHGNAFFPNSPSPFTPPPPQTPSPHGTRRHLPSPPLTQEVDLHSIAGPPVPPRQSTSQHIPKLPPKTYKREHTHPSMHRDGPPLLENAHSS

Calu-1 = test: Antiproliferative activity against human Calu-1 cells harboring KRAS G12C mutant assessed as inhibition of cell growth incubated for 72 hrs by MTT assay; type: functional, cell-based; details: Calu-1, 72 h
PC-3 [7] = test: Induction of cell cycle arrest in human PC-3 cells assessed as accumulation of cells at S phase at 0.5 uM by PI staining based flow cytometry (reference value: 16.58%); type: functional
PC-3 [8] = test: Antiproliferative activity against human PC-3 cells transfected with control shRNA assessed as inhibition of cell growth incubated for 72 hrs by MTT assay; type: functional, cell-based; details: PC-3, 72 h
HUVEC [9] = test: Antiangiogenic activity in HUVEC cells assessed as reduction of meshes at 0.5 to 12.5 uM incubated for 8 hrs by matrigel based microscopic analysis; type: functional, cell-based; details: Homo sapiens, dose 0.5-12.5 µM
PC-3 [10] = test: Induction of apoptosis in human PC-3 cells assessed as late apoptotic cells at 2.5 uM by Annexin V-FITC staining based flow cytometry (reference value: 1.93%); type: functional
[11] = molecular target: T1, Son of sevenless homolog 1 (Homo sapiens); test: Inhibition of human recombinant SOS1 at 10 uM relative to control
PC-3 [12] = test: Induction of apoptosis in human PC-3 cells assessed as viable cells at 0.5 uM by Annexin V-FITC staining based flow cytometry (reference value: 94.9%); type: functional; details: read-out: Activity
[13] = molecular target: T2, Son of sevenless homolog 1 (Homo sapiens, UniProt Q07889); test: Inhibition of human recombinant SOS1
T2 sequence (Q07889 whole entry): T1 sequence (whole entry)

[14] = Toxicity in BALB/c mouse xenografted with human PC-3 cells assessed as liver pathological change at 20 mg/kg,ip administrated once every 4 days for 24 days by hematoxylin and eosin staining based analysis; type: organism-based; details: in vivo, 576 h, time 24 day
PC-3 [15] = test: Induction of apoptosis in human PC-3 cells assessed as viable cells at 12.5 uM by Annexin V-FITC staining based flow cytometry (reference value: 94.9%); type: functional; details: read-out: Activity
PC-3 [16] = test: Antitumor activity against human PC-3 cells xenografted in BALB/c mouse assessed as reduction in number of Ki67-positive cells in tumor tissue at ip administrated once every 4 days for 24 days by DAPI staining based immunohistochemical analysis; type: functional, organism-based; details: time 24.0 day
[17] = Toxicity in BALB/c mouse xenografted with human PC-3 cells assessed as spleen pathological change at 5 mg/kg,ip administrated once every 4 days for 24 days by hematoxylin and eosin staining based analysis; type: organism-based; details: in vivo, 576 h, time 24 day
[18] = Toxicity in BALB/c mouse xenografted with human PC-3 cells assessed as heart pathological change at 20 mg/kg,ip administrated once every 4 days for 24 days by hematoxylin and eosin staining based analysis; type: organism-based; details: in vivo, 576 h, time 24 day
[19] = Toxicity in BALB/c mouse xenografted with human PC-3 cells assessed as spleen pathological change at 20 mg/kg,ip administrated once every 4 days for 24 days by hematoxylin and eosin staining based analysis; type: organism-based; details: in vivo, 576 h, time 24 day

In the case of `COc1cc2ncnc(N[C@H](C)c3cccc(F)c3)c2cc1OC1CCOCC1`, the pIC50 (PC-3 [1]) was < 5.00, the Activity (HUVEC [2]) was “Active” and the pIC50 (PC-3 [3]) was 6.35. For the same compound, the Activity (PC-3 [4]) was 5.95%, the pIC50 (PC-3 [5]) was 5.26 and the Activity (A549) was “Active”. The pIC50 (A-427) was 6.26, the inhibition [6] was “Active” and the pIC50 (Calu-1) was 6.26. For the same compound, the Activity (PC-3 [7]) was 10.84%, the pIC50 (PC-3 [8]) was 6.37 and the Activity (HUVEC [9]) was “Active”. The Activity (PC-3 [10]) was 3.36%, the inhibition [11] was 97% and the viability at 0.5 µM (PC-3 [12]) was 84.9%. For the same compound, the pIC50 [13] was 7.38, the Activity [14] was “Toxic” and the viability at 12.5 µM (PC-3 [15]) was 74.3%. For the same compound, the Activity (PC-3 [16]) was “Dose-Dependent Effect”, the Activity [17] was “Toxic” and the Activity [18] was “Toxic”. For the same compound, the Activity [19] was “Toxic”.
